Assay results as given in patent US10016444B2, “Molecules for bone tissue regeneration” (ISTITUTO ORTOPEDICO RIZZOLI, priority 2014, dated 2018).

How the values were obtained:
human osteoclasts (OCs) [1] = conditions: OCs on Biocoat Osteologic slides, qualitative evaluation
Description: The ability of OCs to perform a physiological function of degrading the inorganic matrix was assessed by means of the ‘Pit Assay’, in which the OCs were cultured on Biocoat Osteologic (BD Bioscience) slides according to the procedure described in detail above.

[2] = test system: human mesenchymal stem cells (MSCs); test: Cell proliferation of MSCs by tritiated thymidine method; type: cell-based; conditions: 33 μM, both at 24 and 72 h after stimulation, vs unstimulated control
Description: Cell proliferation was measured in the MSCs by means of the tritiated thymidine method, in the presence or absence of stimuli, following a method already published in precedence (Gabusi E. et al. J Cell Physiol. 2011). […] After 48 h, tritiated thymidine (Amersham Pharmacia Biotech Italy, Milan) was added to each well at the final concentration of 2 mCi/ml and the culture further incubated for 18 h at 37° C. Lastly, the plates were aspirated through glass fibre filters and dried and the radioactivity incorporated in the cells, indicative of proliferative activity, was measured by means of a TopCount Microplate Scintillation Counter (Packard Instrument Company, Meriden, Conn.). The data are expressed as cpm (count per minute).

[3] = test system: human mesenchymal stem cells (MSCs)
Description: Briefly, 5 ml of bone marrow aspirate was obtained from consenting patients who underwent post-traumatic orthopaedic surgery. The mononuclear cells were obtained following centrifugation in a density gradient (Ficoll-Hypaque); the cells thus obtained were washed with PBS, resuspended in a D-MEM culture medium containing 15% FBS, then counted and seeded in plastic flasks at a concentration of 2×10^6 cells/flask T150. After 1 week, the non-adherent cells were removed and the adherent cells expanded in culture up to the concentration of 5000 MSC/cm^2 and used, finally, in the culture passage p.1 for the experiments.
Cytoxicity was evaluated in the culture after 24 h and 72 h by means of the lactate dehydrogenase (LDH) method, using a commercial kit (Cytotoxicity Detection Kit, Roche, Milan). In order to avoid interferences due to components present in serum, the cells were maintained under low serum conditions (5%) in the culture medium.

human osteoclasts (OCs) [4] = test: Differentiation of human osteoclasts (TRAP staining count); type: cell-based; conditions: for inhibition of OC differentiation (number of TRAP-positive mature OCs): monocyte precursors with M-CSF and RANKL, 8 days, 1-33 μM
From the text: Human osteoclasts (OCs) were obtained according to a method already described and published (Grassi F. et al. J Cell Physiology 2011 April; 226(4):982-90). Briefly, the OCs were differentiated in vitro starting from monocytic precursors obtained from the peripheral blood of healthy, consenting donors; in particular, whole blood was stratified on Ficoll-Hypaque and the mononuclear cells were obtained by centrifugation. Monocytes were isolated from the latter by immunomagnetic separation of cells positive to the antigen CD11b via a MACS apparatus (Miltenyi Biotech, Calderara di Reno, Bologna). […] The number of mature OCs obtained for each condition of stimulation was then identified by means of a manual count, under a microscope, of the multinuclear cells positive to tartrate-resistant acid phosphatase (TRAP) staining.

[5] = Determination of the release of H2S by amperometry; type: physicochemical
Description: Amperometry—the potential release of H2S from the tested compound was evaluated by means of the amperometric method, using an Apollo-4000 Free Radical Analyzer (WPI) connected to mini-electrodes selective for H2S. The experiments were conducted at room temperature in phosphate buffer (NaH2PO4.H2O 0.128 g, Na2HPO4.12H2O 0.597 g, NaCl 4.388 g in 500 mL H2O) at pH 7.4. When required by the experimental protocol, 4 mM L-cysteine was also dissolved in the above-described phosphate buffer, maintaining the pH a 7.4. After stabilisation of the mini-electrodes selective for H2S in 10 mL of buffer, 100 μL of the compound DM-22 solubilised in DMSO was added at the final concentration of 1 mM. The formation of H2S was recorded for 20 minutes. The same experimental procedure was also carried out in the buffer containing L-cysteine. The correspondence between the amperometric currents (recorded in pA) and the concentrations of H2S was determined by means of suitable calibration curves previously obtained using increasing concentrations of NaHS (1 μM, 3 μM, 5 μM, 10 μM) at pH 4.
The curves related to the progressive release of H2S as a function of time were analysed by means of the following equation: Ct=Cmax−(Cmax·e−k·t)
Where Ct is the concentration at time t, Cmax is the maximum concentration obtained during the recording time and the constant k is 0.693/t½, and where t½ is the time it takes to reach half of Cmax. The values of Cmax and t½ were calculated by means of software: Graph Pad Prism 4.0 and expressed as a value±standard error.

[6] = test system: human mesenchymal stem cells (MSCs); test: Mineralisation assay on MSCs (Alizarin Red); type: cell-based; conditions: for mineralising capacity of MSCs (Alizarin Red): osteogenic conditions, dose dependence
Description: The evaluation of the functional capacity to deposit inorganic matrix on the part of MSC cells was evaluated with an in vitro mineralisation assay, according to an already consolidated method (Grassi F. et al. J. Tissue Eng Reg Med, 2013); MSC cells were maintained under culture for 21 days in the presence of […] of ascorbic acid, 2 mM of β-glycerophosphate and 100 nM of dexamethasone. […] Finally, the mineralised matrix was visualised by staining with Alizarin Red and quantified by spectrophotometry (Nanoquant, Tecan Group, Mannedorf, Switzerland).

[7] = test system: human mesenchymal stem cells (MSCs); test: Cell viability by Toluidine Blue staining of MSCs; type: cell-based; conditions: 72 h, 33 μM
From the text: At the end of the period of culture, moreover, the MSCs underwent staining with Toluidine Blue stain in order to evaluate the residual viability, which was then quantified by means of a spectrophotometer (Nanoquant, Tecan Group, Mannedorf, Switzerland).

## O=C(NCCCC(O)(P(=O)(O)O)P(=O)(O)O)c1ccc(N=C=S)cc1 [DM-22]
Human osteoclasts (OCs) [1]
  inhibition of erosive capacity of OCs (pits, qualitative): only at the concentrations of 10 and 33 μM do the eroded areas disappear completely
[2]
  proliferative activity in MSCs: does not induce any significant decrease in proliferation
[3]; 1-33 μM, at both 24 h and 72 h, low serum (5%)
  cytotoxicity (LDH assay): does not induce any cytotoxicity
[3]; 24 h
  cytotoxicity (LDH assay) compared to the basal level induced by serum deprivation: significant protection
[3]; 72 h, 33 μM
  cellular toxicity (LDH assay): completely absent
Human osteoclasts (OCs) [4]; concentrations being equal
  times less effective than alendronate in suppressing OCs: 33-100 times
Human osteoclasts (OCs) [4]
  inhibition of OC differentiation (number of TRAP-positive mature OCs): statistically significant only at the highest concentration (33 μM)
[5]; 1 mM compound in phosphate buffer pH 7.4, room temperature, no L-cysteine
  concentration of H2S detected after 20 minutes of incubation: approximately 1.5 μM
[5]; 1 mM compound in phosphate buffer pH 7.4 in the presence of 4 mM L-cysteine
  maximum concentration of H2S detected after 20 minutes of incubation: approximately 45 μM
[5]; summary statement
  liberation of H2S: capable of liberating H2S with slow-release kinetics
[6]; 21 days, concentrations of 3.3, 10 and 33 μM
  mineralisation compared to MSCs treated with alendronate: significantly greater mineralisation
[6]; 21 days, maximum concentration of 33 μM
  degree of mineralisation compared to control MSCs: significantly greater than that of the control MSCs
[6]; 21 days
  mineralising capacity of MSCs (Alizarin Red): dose-dependent capacity to induce mineralisation
[6]; summary statement
  range of concentration in which it stimulates the anabolic function and significantly inhibits osteoclasts: 10 to 33 µM
[7]
  cell viability (Toluidine Blue) compared to the unstimulated control: does not bring about any decrease

## [Na+].[SH-] [NaHS, reference compound]
[6]; 21 days
  mineralising capacity of MSCs (Alizarin Red): respond as expected

## NCCCC(O)(P(=O)(O)O)P(=O)(O)O [alendronate, reference compound]
[2]
  proliferative activity in MSCs: significant inhibition of proliferative activity
Human osteoclasts (OCs) [4]
  inhibition of OC differentiation (number of TRAP-positive mature OCs): strong capacity to inhibit OC differentiation starting from the lowest concentration used in the study (1 μM)
[7]
  cell viability (Toluidine Blue) compared to the unstimulated control: significant decrease in cell viability

## [Ca+2].[Cl-].[Cl-] [calcium chloride, reference compound]
[6]; 21 days
  mineralising capacity of MSCs (Alizarin Red): respond as expected
